Key:
PD-1/PD-L1 = PD-1/PD-L1 (Homo sapiens (Human), UniProt Q9NZQ7); test: Homogeneous Time-Resolved Fluorescence (HTRF) PD-1/PD-L1 binding assay; conditions: recombinant human PD-1 and PD-L1
How it was run: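 Human PD-1 (25-167, Fc-tagged; 3 nM) and PD-L1 (19-238, His-tagged; 10 nM) were preincubated 40 min with inhibitors in PBS pH 7.4, 0.05% Tween-20, 0.1% BSA, 1% DMSO, at 25 °C. Eu-anti-human IgG (1 nM) and anti-His-APC (20 nM) were added for 60 min. The 665/620 nm HTRF ratio gave IC50 by curve fitting.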

[1] = system: U2OS/PD-L1 cells and Jurkat-PD-1-SHP cells; test: Src homology region 2 domain-containing phosphatase (SHP) assay; assay type: cell-based; conditions: Homo sapiens, U2OS; PathHunter chemiluminescence, 2 hours
How it was run: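 U2OS/PD-L1 cells and Jurkat-PD-1-SHP cells, 5000 each, were co-incubated with compound for 2 h at 37 °C in RPMI with 1% FBS. PathHunter enzyme-fragment complementation chemiluminescence reported PD-1/SHP recruitment. IC50 was fitted from percent of DMSO-control activity versus log concentration.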

PD-L1 = PD-L1 (Homo sapiens (Human), UniProt Q9NZQ7); test: PD-L1 whole blood internalization assay; assay type: cell-based; conditions: PD-L1 internalization in human whole blood, CD14+ cells, interferon γ, 24 hour
[2] = In vivo pharmacokinetics in rats; design: species or system Sprague Dawley rats; conditions: rat, cassette dosing; for clearance / half-life / Vd / Cmax / AUC(0-inf): male, Sprague-Dawley, plasma; for clearance / half-life / Vd: 1.0 mg/kg IV; for Vd: read-out: Vss; for Cmax / AUC(0-inf) / F: 3.0 mg/kg PO; for AUC(0-inf): read-out: AUC0-inf
Protocol: (§1) For in vivo pharmacokinetic experiments, test compounds were administered to male Sprague Dawley rats or male and female Cynomolgus monkeys intravenously or via oral gavage. For intravenous (IV) dosing, test compounds were dosed at 0.5 to 1 mg/kg using a formulation of 10% dimethylacetamide (DMAC) in acidified saline via IV bolus for rat and 5 min or 10 min IV infusion for monkey. For oral (PO) dosing, test compounds were dosed at 1.0 to 3.0 mg/kg using 5% DMAC in 0.5% methylcellulose in citrate buffer (pH 3.5). Blood samples were collected at predose and various time points up to 24 hours postdose. All blood samples were collected using EDTA as the anticoagulant and centrifuged to obtain plasma samples. The plasma concentrations of test compounds were determined by LC-MS methods. The measured plasma concentrations were used to calculate PK parameters by standard noncompartmental methods using Phoenix® WinNonlin software program (version 7.0, Pharsight Corporation).
(§2) In rats and monkeys, cassette dosing of test compounds were conducted to obtain preliminary PK parameters.

[3] = In vivo pharmacokinetics in monkeys; conditions: cynomolgus monkey, cassette dosing; for clearance / half-life / Vd / AUC(0-inf) / Cmax: both sexes, plasma; for clearance / half-life / Vd: 1.0 mg/kg IV; for Vd: read-out: Vss; for AUC(0-inf) / Cmax / F: 3.0 mg/kg PO
Protocol: as §1, §2

PD-L1, sequence (Q9NZQ7 19-290): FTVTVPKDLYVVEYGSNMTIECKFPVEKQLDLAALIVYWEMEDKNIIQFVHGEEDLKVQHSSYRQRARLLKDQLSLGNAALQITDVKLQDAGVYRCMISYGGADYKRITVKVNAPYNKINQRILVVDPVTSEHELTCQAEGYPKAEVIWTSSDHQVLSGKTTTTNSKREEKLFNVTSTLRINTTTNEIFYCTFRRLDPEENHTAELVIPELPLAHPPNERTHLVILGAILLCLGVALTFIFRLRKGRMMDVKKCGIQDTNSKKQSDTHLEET
PD-1/PD-L1, sequence (Q9NZQ7 19-238): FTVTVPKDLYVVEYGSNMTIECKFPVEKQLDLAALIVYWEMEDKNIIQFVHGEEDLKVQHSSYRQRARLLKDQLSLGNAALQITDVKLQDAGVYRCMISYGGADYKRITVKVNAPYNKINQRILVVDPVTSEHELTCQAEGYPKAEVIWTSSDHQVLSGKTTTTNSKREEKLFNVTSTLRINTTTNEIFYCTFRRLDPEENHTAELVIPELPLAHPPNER

IC50 (PD-1/PD-L1) [nM] | IC50 [1] [nM] | IC50 (PD-L1) [nM] | clearance [2] [L/h/kg] | half-life [2] [h] | Vd [2] [L/kg] | Cmax [2] [µM] | AUC(0-inf) [2] [µM·h] | F [2] [%] | clearance [3] [L/h/kg] | half-life [3] [h] | Vd [3] [L/kg] | AUC(0-inf) [3] [µM·h] | Cmax [3] [µM] | F [3] [%] | Structure (SMILES)
2.2 | 3 | 7.9 | 0.369 | 4.4 | 1.75 | 0.166 | 1.4 | 14 | 0.255 | 6.35 | 1.01 | 8.24 | 0.794 | 59 | Cc1c(Nc2nc(C(F)F)nc3cc(CN4CC[C@@H](O)C4)cnc23)cccc1-c1cccc(NC(=O)c2nc3c(n2C)CCN(CCC24CCC(C(=O)O)(CC2)C4)C3)c1Cl [Example 1, (R)-4-(2-(2-((2-chloro-3′-((2-(difluoromethyl)-7-((3-hydroxypyrrolidin-1-yl)methyl)pyrido[3,2-d]pyrimidin-4-yl)amino)-2′-methyl-[1,1′-biphenyl]-3-yl)carbamoyl)-1-methyl-1,4,6,7-tetrahydro-5H-imidazo[4,5-c]pyridin-5-yl)ethyl)bicyclo[2.2.1]heptane-1-carboxylic Acid]
1.5 | 3.9 | 8 | 0.471 | 4.4 | 2.63 | 0.111 | 1.07 | 14 | 0.287 | 6.23 | 1.36 | 6.84 | 0.579 | 57 | Cc1c(Nc2nc(C(F)F)nc3cc(CN4CC[C@@](C)(O)C4)cnc23)cccc1-c1cccc(NC(=O)c2nc3c(n2C)CCN(CCC24CCC(C(=O)O)(CC2)C4)C3)c1Cl [Example 2, (R)-4-(2-(2-((2-chloro-3′-((2-(difluoromethyl)-7-((3-hydroxy-3-methylpyrrolidin-1-yl)methyl)pyrido[3,2-d]pyrimidin-4-yl)amino)-2′-methyl-[1,1′-biphenyl]-3-yl)carbamoyl)-1-methyl-1,4,6,7-tetrahydro-5H-imidazo[4,5-c]pyridin-5-yl)ethyl)bicyclo[2.2.1]heptane-1-carboxylic Acid]
2.1 | 4 | 60 | 0.416 | 3.9 | 1.63 | 0.241 | 1.65 | 19 | 0.296 | 8.48 | 1.14 | 11.1 | 1.3 | 89 | Cc1c(NC(=O)c2nc3c(n2C)CCN(CCC24CCC(C(=O)O)(CC2)C4)C3)cccc1-c1cccc(Nc2nc(C(F)F)nc3cc(CN4CC[C@@H](O)C4)cnc23)c1C [Example 5, (R)-4-(2-(2-((3′-((2-(difluoromethyl)-7-((3-hydroxypyrrolidin-1-yl)methyl)pyrido[3,2-d]pyrimidin-4-yl)amino)-2,2′-dimethyl-[1,1′-biphenyl]-3-yl)carbamoyl)-1-methyl-1,4,6,7-tetrahydro-5H-imidazo[4,5-c]pyridin-5-yl)ethyl)bicyclo[2.2.1]heptane-1-carboxylic Acid]

Source: patent publication US11401279B2, “Pyrido[3,2-d]pyrimidine compounds as immunomodulators” (Incyte Corporation, priority 2019, dated 2022)
